# Data published in patent US20260284208A1, “SYSTEM” (Oxford University Innovation Limited, priority 2023, published 2026).
# Tested on: library of 8,380 IKZF3 degrons (ZF-eGFP/mCherry reporter) in Jurkat cells
# Test: Pooled library screen (FACS, NGS, limma voom LogFC of positive vs negative read counts)
# Assay type: cell-based, human
# Protocol: A library of 8,380 IKZF3 degrons was cloned into pLVX-Sprout to create the eGFP/mCherry protein degradation reporter plasmid pool. A lentivirus pool was then generated using the Lenti-X lentiviral vector production method.
# Jurkat cells were transduced at a multiplicity of infection of <0.3 with the lentivirus vector library in order to maximise the number of cells with a single integration. Transductions were carried out in 6 well TC-treated cell culture dishes (Falcon) with 3×10^6 cells per well. Cells were incubated for 2 days at 37° C. and 5% CO2 before the supernatant was removed and replaced with fresh media. 6 days post-transduction, mCherry+ cells were isolated via FACS using the FACS Aria Fusion (BD) in a buffer containing PBS (Gibco), 2 mM EDTA (Gibco), 25 mM HEPES (Sigma) and 1% BSA (Sigma). 8 days later, cells were treated with DMSO or a thalidomide analog for 18 hours at 37° C. and 5% CO2. mCherry+GFPlow and NOT(mCherry+GFPlow) cells were sorted by FACS using the FACS Aria Fusion (BD). DMSO treated cells were used to set the mCherry+GFPlow gate and dead cells were excluded from sorting by staining cells with 1 μg/mL DAPI (ThermoFisher). gDNA was isolated using the Maxwell RSC 48 (Promega). gDNA from cells that were unsorted and untreated were also isolated to determine the library representation on the day of compound treatment. Throughout the screen >600× coverage of the library was maintained. 3 biological replicates were carried out with a new transduction taking place each time.
# A two-step PCR was used where the first PCR (PCR1) amplified the integrated degron sequence from gDNA and the second PCR (PCR2) added Illumina adaptors and barcodes to permit multiplexing. See Supp F for PCR1 and PCR2 primers. Q5 Hot Start High-Fidelity 2× Master Mix (New England Biolabs) was used for both PCRs. Sufficient gDNA was amplified in PCR1 in order to maintain >600× coverage and amplicons were purified using solid phase reversible immobilization (SPRI) beads (Beckman Coulter). Purified PCR1 products were analysed on the Tapestation 4200 (Agilent) to confirm purity prior to proceeding to PCR2. Sufficient PCR1 product was amplified in PCR2 in order to maintain >600× coverage and amplicons were run on a 2% agarose TAE gel. Target bands were excised and purified using the NucleoSpin Gel and PCR Clean-up Kit (Machery Nagel). Amplicons were analysed on the Tapestation 4200 and quantified using Qubit dsDNA HS kit (ThermoFisher). PCR products were pooled and sequenced as paired-reads on the NovaSeq (Illumina) using a SP2 200 cycles kit (Illumina).
# Count distributions, percentage of read mapping, library coverage and replicate correlation per sample were assessed for QC purposes.
# To carry out the library screen, we used the same plasmid construct as in our earlier flow cytometry assays, but pooling all 8,380 mutants together into one Jurkat population, ensuring a copy number of one plasmid per cell (FIG. 4B). […] These GFP-negative cells were then separated from the remaining GFP-positive population using fluorescence activated cell sorting (FACS). These two populations were then sequenced and the relative abundance of every mutant in both populations compared to provide a log FC value for each mutant sequence. This value indicated how frequently a sequence is observed in the GFP-negative population relative to the GFP-positive population, and therefore how effective a degron it is for that particular IMID compound.
smiles,measurement,setting,value
"O=C1CCC(N2C(=O)c3ccccc3C2=O)C(=O)N1 (centres unmarked) [A32, 2-(2,6-dioxopiperidin-3-yl)isoindoline-1,3-dione]",A32_logFC,"Degron-ID 794, SEQ ID NO 61, 46F_47E_49E_50I_52G_53A_54R_55F_67L",3.549
same,A32_logFC,"Degron-ID 834, SEQ ID NO 125, 46F_47E_49E_50V_52G_53A_54R_55F_67L",3.292
same,A32_logFC,"Degron-ID 911, SEQ ID NO 130, 46F_47E_49P_50I_52G_53A_54N_55F_67L",3.269
same,A32_logFC,"Degron-ID 914, SEQ ID NO 108, 46F_47E_49P_50I_52G_53A_54R_55F_67L",3.367
same,A32_logFC,"Degron-ID 915, SEQ ID NO 119, 46F_47E_49P_50I_52G_53A_54S_55F_67L",3.325
same,A32_logFC,"Degron-ID 917, SEQ ID NO 116, 46F_47E_49P_50I_52G_53A_54V_55F_67L",3.331
same,A32_logFC,"Degron-ID 1752, SEQ ID NO 91, 46F_47I_49E_50I_52G_53A_54P_55F_67L",3.433
same,A32_logFC,"Degron-ID 2392, SEQ ID NO 93, 46F_47L_49P_50V_52G_53A_54P_55F_67L",3.414
same,A32_logFC,"Degron-ID 2881, SEQ ID NO 123, 46F_47Q_49D_50I_52G_53A_54C_55F_67L",3.299
same,A32_logFC,"Degron-ID 2887, SEQ ID NO 82, 46F_47Q_49D_50I_52G_53A_54I_55F_67L",3.467
same,A32_logFC,"Degron-ID 2888, SEQ ID NO 126, 46F_47Q_49D_50I_52G_53A_54K_55F_67L",3.282
same,A32_logFC,"Degron-ID 2892, SEQ ID NO 112, 46F_47Q_49D_50I_52G_53A_54P_55F_67L",3.346
same,A32_logFC,"Degron-ID 2941, SEQ ID NO 79, 46F_47Q_49E_50I_52G_53A_54C_55F_67L",3.477
same,A32_logFC,"Degron-ID 2943, SEQ ID NO 71, 46F_47Q_49E_50I_52G_53A_54E_55F_67L",3.525
same,A32_logFC,"Degron-ID 2948, SEQ ID NO 84, 46F_47Q_49E_50I_52G_53A_54K_55F_67L",3.461
same,A32_logFC,"Degron-ID 2949, SEQ ID NO 65, 46F_47Q_49E_50I_52G_53A_54L_55F_67L",3.534
same,A32_logFC,"Degron-ID 2950, SEQ ID NO 54, 46F_47Q_49E_50I_52G_53A_54M_55F_67L",3.574
same,A32_logFC,"Degron-ID 2953, SEQ ID NO 58, 46F_47Q_49E_50I_52G_53A_54Q_55F_67L",3.557
same,A32_logFC,"Degron-ID 2956, SEQ ID NO 137, 46F_47Q_49E_50I_52G_53A_54T_55F_67L",3.256
same,A32_logFC,"Degron-ID 2988, SEQ ID NO 97, 46F_47Q_49E_50V_52G_53A_54K_55F_67L",3.401
same,A32_logFC,"Degron-ID 2990, SEQ ID NO 72, 46F_47Q_49E_50V_52G_53A_54M_55F_67L",3.522
same,A32_logFC,"Degron-ID 2991, SEQ ID NO 55, 46F_47Q_49E_50V_52G_53A_54N_55F_67L",3.561
same,A32_logFC,"Degron-ID 2992, SEQ ID NO 64, 46F_47Q_49E_50V_52G_53A_54P_55F_67L",3.535
same,A32_logFC,"Degron-ID 2995, SEQ ID NO 67, 46F_47Q_49E_50V_52G_53A_54S_55F_67L",3.531
same,A32_logFC,"Degron-ID 3000, SEQ ID NO 100, 46F_47Q_49N_50I_52G_53A_54A_55F_67L",3.386
same,A32_logFC,"Degron-ID 3001, SEQ ID NO 105, 46F_47Q_49N_50I_52G_53A_54C_55F_67L",3.375
same,A32_logFC,"Degron-ID 3007, SEQ ID NO 7, 46F_47Q_49N_50I_52G_53A_54I_55F_67L",3.811
same,A32_logFC,"Degron-ID 3008, SEQ ID NO 134, 46F_47Q_49N_50I_52G_53A_54K_55F_67L",3.259
same,A32_logFC,"Degron-ID 3013, SEQ ID NO 127, 46F_47Q_49N_50I_52G_53A_54Q_55F_67L",3.279
same,A32_logFC,"Degron-ID 3014, SEQ ID NO 133, 46F_47Q_49N_50I_52G_53A_54R_55F_67L",3.262
same,A32_logFC,"Degron-ID 3015, SEQ ID NO 114, 46F_47Q_49N_50I_52G_53A_54S_55F_67L",3.343
same,A32_logFC,"Degron-ID 3016, SEQ ID NO 6, 46F_47Q_49N_50I_52G_53A_54T_55F_67L",3.867
same,A32_logFC,"Degron-ID 3017, SEQ ID NO 80, 46F_47Q_49N_50I_52G_53A_54V_55F_67L",3.473
same,A32_logFC,"Degron-ID 3047, SEQ ID NO 106, 46F_47Q_49N_50V_52G_53A_54I_55F_67L",3.374
same,A32_logFC,"Degron-ID 3057, SEQ ID NO 94, 46F_47Q_49N_50V_52G_53A_54V_55F_67L",3.409
same,A32_logFC,"Degron-ID 3060, SEQ ID NO 68, 46F_47Q_49P_50I_52G_53A_54A_55F_67L",3.529
same,A32_logFC,"Degron-ID 3062, SEQ ID NO 8, 46F_47Q_49P_50I_52G_53A_54D_55F_67L",3.806
same,A32_logFC,"Degron-ID 3066, SEQ ID NO 120, 46F_47Q_49P_50I_52G_53A_54H_55F_67L",3.318
same,A32_logFC,"Degron-ID 3067, SEQ ID NO 10, 46F_47Q_49P_50I_52G_53A_54I_55F_67L",3.792
same,A32_logFC,"Degron-ID 3068, SEQ ID NO 90, 46F_47Q_49P_50I_52G_53A_54K_55F_67L",3.436
same,A32_logFC,"Degron-ID 3069, SEQ ID NO 107, 46F_47Q_49P_50I_52G_53A_54L_55F_67L",3.373
same,A32_logFC,"Degron-ID 3071, SEQ ID NO 50, 46F_47Q_49P_50I_52G_53A_54N_55F_67L",3.58
same,A32_logFC,"Degron-ID 3074, SEQ ID NO 62, 46F_47Q_49P_50I_52G_53A_54R_55F_67L",3.549
same,A32_logFC,"Degron-ID 3075, SEQ ID NO 11, 46F_47Q_49P_50I_52G_53A_54S_55F_67L",3.79
same,A32_logFC,"Degron-ID 3076, SEQ ID NO 56, 46F_47Q_49P_50I_52G_53A_54T_55F_67L",3.56
same,A32_logFC,"Degron-ID 3079, SEQ ID NO 109, 46F_47Q_49P_50I_52G_53A_54Y_55F_67L",3.361
same,A32_logFC,"Degron-ID 3080, SEQ ID NO 129, 46F_47Q_49P_50Q_52G_53A_54A_55F_67L",3.273
same,A32_logFC,"Degron-ID 3081, SEQ ID NO 138, 46F_47Q_49P_50Q_52G_53A_54C_55F_67L",3.255
same,A32_logFC,"Degron-ID 3097, SEQ ID NO 92, 46F_47Q_49P_50Q_52G_53A_54V_55F_67L",3.423
same,A32_logFC,"Degron-ID 3101, SEQ ID NO 83, 46F_47Q_49P_50V_52G_53A_54C_55F_67L",3.465
